Data as given in US20240368351A1, “FACTORS CONTROLLING DRUG RELEASE IN CROSS-LINKED POLY(VALEROLACTONE) BASED MATRICES” (Pendant Biosciences, Inc., priority 2019, published 2024).
≈ marks a conversion by molar mass, not a printed value.

Assays:
[1] = Solubility of Drug X in organic solvents and water; format: physicochemical
[2] = Stability of Drug X freebase in PBS with or without SDS by HPLC; format: physicochemical
Text: The appearance of second peak correlates with concentration of the drug.

[3] = Drug solubility in different release media (PBS with Tween 80 or SDS); format: physicochemical; settings: for solubility at 48 h: release media (PBS with Tween 80 or SDS), 37 °C, pH 7.4, aqueous with cosolvent or surfactant or cyclodextrin, thermodynamic from solid
Description: Mikkelsen, L. M., Enzyme solubility in liquid detergent and use of detergent composition. […] Crotts, G.; Park, T. G. Protein delivery from poly(lactic-co-glycolic acid) biodegradable microspheres: Release kinetics and stability issues. […] FDA.
The solutions were centrifuged at 8000 rpm for 10 minutes, and a 1 ml aliquot was withdrawn, filtered through a 0.45 μm nylon membrane, and analyzed by HPLC.

[4] = logP (octanol-water partition) by shake tube method; format: physicochemical
[5] = In vitro drug release from cross-linked matrices (CPs), sample-and-separate, with mathematical modeling (Fick diffusion); format: physicochemical; settings: for cumulative release from the drug-loaded crosslinked copolymer: embodiment statement
Description: Evaluation of in vitro drug release: impact of the nature of the drug, polymer and release media: In the in vitro release studies the impact of a number of variables was evaluated including nature of the drug, compatibility between the drug and the polymer matrix, degree of crystallinity of the matrix, M.W. of the copolymer, cross-linking density and the composition of the release media. The commonly used, sample-and-separate method was employed to evaluate drug release from the cross-linked matrices. D'Souza, S. S.; DeLuca, P. P. Methods to Assess in vitro Drug Release from Injectable Polymeric Particulate Systems. Pharmaceutical Research 2006, 23, 3, 460-474.
The Peppas-Sahlin model, where diffusion and polymer relaxation are known to be the underlying drivers of drug release provided the best fit in terms of R^2adjusted (FIGS. 8A and 8C) For cylindrical shaped matrices, Fickian diffusion is considered to be operative when the ratio of diameter to thickness (n or m) of the matrix is equal to or less than 0.45. If the value is […], the drug release mechanism is considered non-Fickian; whereas, if n is 0.89 drug release is considered to be case II transport. Herein, the dimension and the geometry of the matrices evaluated have a value of 0.78<n<0.80. […]
Protocols for drug analysis by HPLC and cytotoxicity evaluation of the cross-linked matrices: The drug release was analyzed by reverse phase HPLC using an Agilent 1200 HPLC system with Agilent ChemStation software, an XDB C18 column (150×4.6 mm i.d+guard column) and UV detection. […] Drug concentrations were quantified using calibration curves using standards that ranged in concentration from 1 to 100 μg/ml (0.9986≤R^2≤1).
The CPs were incubated at 37° C. under constant stirring and at pre-determined time points, a 1 ml aliquout was removed and replaced with 1 mL of fresh media and the samples were immediately frozen at −20° C. for storage prior to HPLC analysis. […] The drug was reconstituted in 1 ml of the HPLC mobile phase and analyzed to correct the DLC and release curves. […]

[6] = cited from earlier work
[7] = PBS with SDS, 120 μg/ml, 2 days
[8] = PBS with SDS, 120 μg/ml, 3 days
[9] = PBS with SDS, 120 μg/ml, 4 days

CC(C)OC(=O)[C@H](C)N[P@](=O)(CO[C@H](C)Cn1cnc2c(N)ncnc21)Oc1ccccc1 [Drug X freebase]
Solubility EtOH ([1]; 5 mg/100 μl, cell wraps: 'Soluble, and' / 'transparent'): Soluble, and
area of the HPLC peak corresponding to Drug X freebase as a function of time ([2]; PBS with 0.5% SDS): constantly decreased as a function of time
Area (Drug X freebase peak) ([2]; PBS with SDS, 12 μg/ml, 1 hr): 191.5
Area (Drug X freebase peak) ([2]; PBS with SDS, 12 μg/ml, 3 hrs): 185.7
Area (Drug X freebase peak) ([2]; PBS with SDS, 12 μg/ml, 7 hrs): 182.8
Area (Drug X freebase peak) ([2]; PBS with SDS, 12 μg/ml, 1 day): 179.2
Area (Drug X freebase peak) ([2]; PBS with SDS, 12 μg/ml, 2 days): 178.7
Area (Drug X freebase peak) ([2]; PBS with SDS, 12 μg/ml, 3 days): 155.2
Area (Drug X freebase peak) ([2]; PBS with SDS, 12 μg/ml, 4 days): 155.8
Area (Drug X freebase peak) ([2]; PBS with SDS, 12 μg/ml, T = 0): 192.6
Area (2nd) second peak ([2]; PBS with SDS, 60 μg/ml, 1 hr): (99.6)
Area (Drug X freebase peak) ([2]; PBS with SDS, 60 μg/ml, 1 hr): 934.7
Area (2nd) second peak ([2]; PBS with SDS, 60 μg/ml, 3 hrs): (85.18)
Area (Drug X freebase peak) ([2]; PBS with SDS, 60 μg/ml, 3 hrs): 909.05
Area (2nd) second peak ([2]; PBS with SDS, 60 μg/ml, 7 hrs): (95.5)
Area (Drug X freebase peak) ([2]; PBS with SDS, 60 μg/ml, 7 hrs): 906.7
Area (2nd) second peak ([2]; PBS with SDS, 60 μg/ml, 1 day): (87.6)
Area (Drug X freebase peak) ([2]; PBS with SDS, 60 μg/ml, 1 day): 867.8
Area (2nd) second peak ([2]; PBS with SDS, 60 μg/ml, 2 days): (77.0)
Area (Drug X freebase peak) ([2]; PBS with SDS, 60 μg/ml, 2 days): 783.7
Area (2nd) second peak ([2]; PBS with SDS, 60 μg/ml, 3 days): (72.3)
Area (Drug X freebase peak) ([2]; PBS with SDS, 60 μg/ml, 3 days): 712.2
Area (2nd) second peak ([2]; PBS with SDS, 60 μg/ml, 4 days): (68.1)
Area (Drug X freebase peak) ([2]; PBS with SDS, 60 μg/ml, 4 days): 677.3
Area (2nd) second peak ([2]; PBS with SDS, 60 μg/ml, T = 0): (73.9)
Area (Drug X freebase peak) ([2]; PBS with SDS, 60 μg/ml, T = 0): 929.6
Area (2nd) second peak ([2]; PBS with SDS, 120 μg/ml, 1 hr): (223.0)
Area (Drug X freebase peak) ([2]; PBS with SDS, 120 μg/ml, 1 hr): 1768.4
Area (2nd) second peak ([2]; PBS with SDS, 120 μg/ml, 3 hrs): (219.47)
Area (Drug X freebase peak) ([2]; PBS with SDS, 120 μg/ml, 3 hrs): 1764.9
Area (2nd) second peak ([2]; PBS with SDS, 120 μg/ml, 7 hrs): (212.8)
Area (Drug X freebase peak) ([2]; PBS with SDS, 120 μg/ml, 7 hrs): 1707.5
Area (2nd) second peak ([2]; PBS with SDS, 120 μg/ml, 1 day): (189.8)
Area (Drug X freebase peak) ([2]; PBS with SDS, 120 μg/ml, 1 day): 1613.5
Area (2nd) second peak [2, 7]: (193.9)
Area (Drug X freebase peak) [2, 7]: 1539.2
Area (2nd) second peak [2, 8]: (167.5)
Area (Drug X freebase peak) [2, 8]: 1401.2
Area (2nd) second peak [2, 9]: (160.3)
Area (Drug X freebase peak) [2, 9]: 1318.3
Area (2nd) second peak ([2]; PBS with SDS, 120 μg/ml, T = 0): (218.0)
Area (Drug X freebase peak) ([2]; PBS with SDS, 120 μg/ml, T = 0): 1849.3
HPLC peak corresponding to Drug X free base as a function of time ([2]; PBS without SDS, regardless of concentration): constantly decreasing as a function of time
Area (Drug X freebase peak) ([2]; Table 47, PBS with SDS, 12 μg/ml, 1 hr): 164.51
Area (Drug X freebase peak) ([2]; Table 47, PBS with SDS, 12 μg/ml, 3 hrs): 162.2
Area (Drug X freebase peak) ([2]; Table 47, PBS with SDS, 12 μg/ml, 7 hrs): 161.0
Area (Drug X freebase peak) ([2]; Table 47, PBS with SDS, 12 μg/ml, 1 day): 132.2
Area (Drug X freebase peak) ([2]; Table 47, PBS with SDS, 12 μg/ml, 2 days): 103.6
Area (Drug X freebase peak) ([2]; Table 47, PBS with SDS, 12 μg/ml, 3 days): 84.2
Area (Drug X freebase peak) ([2]; Table 47, PBS with SDS, 12 μg/ml, 4 days): 57.5
Area (Drug X freebase peak) ([2]; Table 47, PBS with SDS, 12 μg/ml, T = 0): 169.2
Area (Drug X freebase peak) ([2]; Table 47, PBS with SDS, 60 μg/ml, 1 hr): 897.8
Area (Drug X freebase peak) ([2]; Table 47, PBS with SDS, 60 μg/ml, 3 hrs): 875.2
Area (Drug X freebase peak) ([2]; Table 47, PBS with SDS, 60 μg/ml, 7 hrs): 850.6
Area (Drug X freebase peak) ([2]; Table 47, PBS with SDS, 60 μg/ml, 1 day): 663.9
Area (Drug X freebase peak) ([2]; Table 47, PBS with SDS, 60 μg/ml, 2 days): 511.8
Area (Drug X freebase peak) ([2]; Table 47, PBS with SDS, 60 μg/ml, 3 days): 361.7
Area (Drug X freebase peak) ([2]; Table 47, PBS with SDS, 60 μg/ml, 4 days): 303.9
Area (Drug X freebase peak) ([2]; Table 47, PBS with SDS, 60 μg/ml, T = 0): 903.4
Area (Drug X freebase peak) ([2]; Table 47, PBS with SDS, 120 μg/ml, 1 hr): 1797.8
Area (Drug X freebase peak) ([2]; Table 47, PBS with SDS, 120 μg/ml, 3 hrs): 1790.0
Area (Drug X freebase peak) ([2]; Table 47, PBS with SDS, 120 μg/ml, 7 hrs): 1687.7
Area (Drug X freebase peak) ([2]; Table 47, PBS with SDS, 120 μg/ml, 1 day): 1319.2
Area (Drug X freebase peak) ([2]; Table 47, PBS with SDS, 120 μg/ml, 2 days): 1023.1
Area (Drug X freebase peak) ([2]; Table 47, PBS with SDS, 120 μg/ml, 3 days): 722.9
Area (Drug X freebase peak) ([2]; Table 47, PBS with SDS, 120 μg/ml, 4 days): 593.4
Area (Drug X freebase peak) ([2]; Table 47, PBS with SDS, 120 μg/ml, T = 0): 1841.8

COc1cc(/C=C/C(=O)CC(=O)/C=C/c2ccc(O)c(OC)c2)ccc1O [Curcumin, curcumin]
solubility at 48 h [3]: 45.6 ± 1.05 µg/mL (≈ 124 µM)
Calculated LogP [4]: 3

CC(=O)O[C@H]1C(=O)[C@@]2(C)[C@H]([C@H](OC(=O)c3ccccc3)[C@]3(O)C[C@H](OC(=O)[C@H](O)[C@@H](NC(=O)c4ccccc4)c4ccccc4)C(C)=C1C3(C)C)[C@]1(OC(C)=O)CO[C@@H]1C[C@@H]2O [Paclitaxel, paclitaxel]
solubility, times greater in 0.5% SDS than in 0.1% SDS ([3]; PBS): 10 times
solubility, times greater in 0.5% SDS than in 0.1% Tween 80 ([3]; PBS): 50 times
solubility at 48 h [3]: 106 ± 0.57 µg/mL (≈ 124 µM)
logP ([4]; read-out: Calculated LogP): 2.7
cumulative release from the drug-loaded crosslinked copolymer ([5]; after 35 days): about 58 wt %

CC1(C)S[C@@H]2[C@H](NC(=O)Cc3ccccc3)C(=O)N2[C@H]1C(=O)O [Penicillin G, reference compound]
Log P [6]: 1.83
Water solubility [6]: water (0.21 mg/mL)
Water solubility (words) [6]: Slightly soluble in
pKa [6]: 3.96

CC(C)(C)CC(=O)OCC(=O)[C@@]12OC(C)(C)O[C@@H]1C[C@H]1[C@@H]3CCC4=CC(=O)C=C[C@]4(C)[C@@]3(F)[C@@H](O)C[C@@]12C [Triamcinolone hexacetonide, triamcinolone hexacetonide]
solubility at 48 h [3]: 37.9 ± 0.4 µg/mL (≈ 71.1 µM)
cumulative release from the drug-loaded crosslinked copolymer ([5]; after 34 days): about 42 wt %

CC(=O)Nc1ccc(O)cc1 [Acetaminophen, acetaminophen]
period of release ([5]; from all matrices, PBS with 0.5% SDS, 37° C.): less than a week

CC(C)OC(=O)[C@H](C)N[P@](=O)(CO[C@H](C)Cn1cnc2c(N)ncnc21)Oc1ccccc1.CC(C)OC(=O)[C@H](C)N[P@](=O)(CO[C@H](C)Cn1cnc2c(N)ncnc21)Oc1ccccc1.O=C(O)/C=C/C(=O)O [Drug X fumarate]
Solubility in EtOH/DMSO (50/50) ([1]; 5 mg per 100 mL or μL): Soluble, and
Solubility in DMSO/Water (50/50) ([1]; 5 mg per 200 mL or μL): Insoluble
Solubility in Water ([1]; 5 mg per 200 mL or μL): Insoluble
